The assay concerns the target T1, Full-length glucokinase (beta cell isoform) (Homo sapiens, UniProt P35557).
T1 construct: Full-length glucokinase (beta cell isoform) was His-tagged at N-terminus; His tag (N); made in house
T1 sequence (P35557 1-465): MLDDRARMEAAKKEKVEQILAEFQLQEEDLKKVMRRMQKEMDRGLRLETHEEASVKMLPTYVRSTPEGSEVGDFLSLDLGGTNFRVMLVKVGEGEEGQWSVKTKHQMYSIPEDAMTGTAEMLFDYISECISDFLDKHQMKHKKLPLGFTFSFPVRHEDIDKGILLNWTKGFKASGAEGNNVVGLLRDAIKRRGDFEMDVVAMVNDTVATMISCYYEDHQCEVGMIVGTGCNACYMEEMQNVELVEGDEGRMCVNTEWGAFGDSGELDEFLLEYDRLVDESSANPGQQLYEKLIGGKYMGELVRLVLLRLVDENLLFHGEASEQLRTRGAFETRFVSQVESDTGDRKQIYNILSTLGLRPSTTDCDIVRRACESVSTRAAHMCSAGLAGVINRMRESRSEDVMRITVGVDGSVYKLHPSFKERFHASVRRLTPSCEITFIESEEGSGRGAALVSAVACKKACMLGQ
Nature of the assay: Glucokinase biochemical assay (PK/LDH-coupled, NADH depletion at 340 nm): % activation, EC50, % max activation. As to conditions: 5 mM glucose; for activation at 10 µM: 10 uM compound, % Activation=(Va/Vo−1)×100, read-out: % Activation at 10 uM; for EC50: GK activation, read-out: EC50; for Emax: fitted maximum activation, read-out: % Max Activation. In short, it runs like this:
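Activation expressed as (Va/Vo−1)×100, where initial rates with and without compound come from NADH depletion at 340 nm over 200–900 s. Enzyme is His-tagged human beta-cell GK, full length, run at room temperature in HEPES buffer with 1 mM ATP and 5 mM glucose. DMSO 1%.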

This note sets out measurements from patent US8119624B2, “Fused phenyl amido heterocyclic compounds” (Pfizer Inc., priority 2006, dated 2012).

The structures appear in SMILES notation.

For the molecule `CN1CCN(C(=O)c2ccc(Oc3cc(C(=O)Nc4ccn(C)n4)cc4c3CC(C)(C)O4)c(F)c2)CC1` [Example 42, 4-[2-Fluoro-4-(4-methyl-piperazine-1-carbonyl)-phenoxy]-2,2-dimethyl-2,3-dihydro-benzofuran-6-carboxylic acid(1-methyl-1H-pyrazol-3-yl)-amide], the activation at 10 µM is 128%, the concentration giving a half-maximal response (EC50) came to 2300 nM and the Emax stood at 139%.

In the case of `Cn1ccc(NC(=O)c2cc(Oc3ccc(C(=O)N4CC(F)(F)C4)cc3F)c3c(c2)OC(C)(C)C3)n1` [Example 43, 4-[4-(3,3-Difluoro-azetidine-1-carbonyl)-2-fluoro-phenoxy]-2,2-dimethyl-2,3-dihydro-benzofuran-6-carboxylic acid(1-methyl-1H-pyrazol-3-yl)-amide], the activation at 10 µM came out at 164%, the EC50 came to 730 nM and the Emax is 174%.

As for `CN(C)C1CN(C(=O)c2ccc(Oc3cc(C(=O)Nc4ccn(C)n4)cc4c3CC(C)(C)O4)c(F)c2)C1` [Example 44, 4-[4-(3-Dimethylamino-azetidine-1-carbonyl)-2-fluoro-phenoxy]-2,2-dimethyl-2,3-dihydro-benzofuran-6-carboxylic acid(1-methyl-1H-pyrazol-3-yl)-amide], the activation at 10 µM came out at 137%, the EC50 was found to be 580 nM and the Emax came out at 146%.

For the molecule `Cn1ccc(NC(=O)c2cc(Oc3ccc(C(=O)N4CC(O)C4)cc3F)c3c(c2)OC(C)(C)C3)n1` [Example 45, 4-[2-Fluoro-4-(3-hydroxy-azetidine-1-carbonyl)-phenoxy]-2,2-dimethyl-2,3-dihydro-benzofuran-6-carboxylic acid(1-methyl-1H-pyrazol-3-yl)-amide], the activation at 10 µM is 150%, the EC50 turned out to be 570 nM and the Emax was 146%.

For `CN(C)C(=O)c1ccc(Oc2cc(C(=O)Nc3ccn(C)n3)cc3c2CC(C)(C)O3)c(F)c1` [Example 46, 4-(4-Dimethylcarbamoyl-2-fluoro-phenoxy)-2,2-dimethyl-2,3-dihydro-benzofuran-6-carboxylic acid(1-methyl-1H-pyrazol-3-yl)-amide], the activation at 10 µM stood at 118%, the EC50 worked out at 310 nM and the Emax was found to be 138%.

On to `Cn1ccc(NC(=O)c2cc(Oc3ccc(C(=O)N4CCOCC4)cc3)c3c(c2)OC(C)(C)C3)n1` [Example 47, 2,2-Dimethyl-4-[4-(morpholine-4-carbonyl)-phenoxy]-2,3-dihydro-benzofuran-6-carboxylic acid(1-methyl-1H-pyrazol-3-yl)-amide], for which the activation at 10 µM was found to be 140%, the concentration for a half-maximal effect (EC50) is 1050 nM and the Emax amounted to 156%.

For `Cn1ccc(NC(=O)c2cc(Oc3ccc(C(=O)N4CCCC4)cc3)c3c(c2)OC(C)(C)C3)n1` [Example 48, 2,2-Dimethyl-4-[4-(pyrrolidine-1-carbonyl)-phenoxy]-2,3-dihydro-benzofuran-6-carboxylic acid(1-methyl-1H-pyrazol-3-yl)-amide], the activation at 10 µM came out at 130%, the EC50 was 142 nM and the Emax was found to be 114%.

Regarding `CN(C)C1CN(C(=O)c2ccc(Oc3cc(C(=O)Nc4ccn(C)n4)cc4c3CC(C)(C)O4)cc2)C1` [Example 49, 4-[4-(3-Dimethylamino-azetidine-1-carbonyl)-phenoxy]-2,2-dimethyl-2,3-dihydro-benzofuran-6-carboxylic acid(1-methyl-1H-pyrazol-3-yl)-amide], the activation at 10 µM was found to be 133%, the 50% effective concentration (EC50) stood at 455 nM and the Emax turned out to be 147%.

Turning to `Cn1ccc(NC(=O)c2cc(Oc3ccc(C(=O)N4CC(F)(F)C4)cc3)c3c(c2)OC(C)(C)C3)n1` [Example 50, 4-[4-(3,3-Difluoro-azetidine-1-carbonyl)-phenoxy]-2,2-dimethyl-2,3-dihydro-benzofuran-6-carboxylic acid(1-methyl-1H-pyrazol-3-yl)-amide], the activation at 10 µM was 146%, the concentration giving a half-maximal response (EC50) was 564 nM and the Emax was found to be 149%.

For the molecule `Cn1ccc(NC(=O)c2cc(Oc3ccc(C(=O)N4CCOCC4)c(F)c3)c3c(c2)OC(C)(C)C3)n1` [Example 51, 4-[3-Fluoro-4-(morpholine-4-carbonyl)-phenoxy]-2,2-dimethyl-2,3-dihydro-benzofuran-6-carboxylic acid(1-methyl-1H-pyrazol-3-yl)-amide], the activation at 10 µM came out at 129%, the EC50 came out at 250 nM and the Emax was 130%.

On to `Cn1ccc(NC(=O)c2cc(Oc3ccc(C(=O)N4CC(F)(F)C4)c(F)c3)c3c(c2)OC(C)(C)C3)n1` [Example 52, 4-[4-(3,3-Difluoro-azetidine-1-carbonyl)-3-fluoro-phenoxy]-2,2-dimethyl-2,3-dihydro-benzofuran-6-carboxylic acid(1-methyl-1H-pyrazol-3-yl)-amide], for which the activation at 10 µM amounted to 136%, the EC50 turned out to be 280 nM and the Emax is 151%.

As for `CN1CCN(C(=O)c2ccc(Oc3cc(C(=O)Nc4ccn(C)n4)cc4c3CC(C)(C)O4)cc2F)CC1` [Example 53, 4-[3-Fluoro-4-(4-methyl-piperazine-1-carbonyl)-phenoxy]-2,2-dimethyl-2,3-dihydro-benzofuran-6-carboxylic acid(1-methyl-1H-pyrazol-3-yl)-amide], the activation at 10 µM was determined as 125%, the half-maximal effective concentration (EC50) worked out at 650 nM and the Emax was 135%.

Consider `CN(C)C(=O)c1ccc(Oc2cc(C(=O)Nc3ccn(C)n3)cc3c2CC(C)(C)O3)cc1F` [Example 54, 4-(4-Dimethylcarbamoyl-3-fluoro-phenoxy)-2,2-dimethyl-2,3-dihydro-benzofuran-6-carboxylic acid(1-methyl-1H-pyrazol-3-yl)-amide], for which the activation at 10 µM came to 83.3%, the EC50 turned out to be 80.7 nM and the Emax was 101%.

Take `Cn1ccc(NC(=O)c2cc(Oc3ccc(C(=O)N4CC(O)C4)c(F)c3)c3c(c2)OC(C)(C)C3)n1` [Example 55, 4-[3-Fluoro-4-(3-hydroxy-azetidine-1-carbonyl)-phenoxy]-2,2-dimethyl-2,3-dihydro-benzofuran-6-carboxylic acid(1-methyl-1H-pyrazol-3-yl)-amide]: the activation at 10 µM came to 143%, the EC50 amounted to 680 nM and the Emax is 129%.

Turning to `Cn1ccc(NC(=O)c2cc(Oc3ccc(C(=O)N4CCCC4)c(F)c3)c3c(c2)OC(C)(C)C3)n1` [Example 56, 4-[3-Fluoro-4-(pyrrolidine-1-carbonyl)-phenoxy]-2,2-dimethyl-2,3-dihydro-benzofuran-6-carboxylic acid(1-methyl-1H-pyrazol-3-yl)-amide], the activation at 10 µM is 107%, the half-maximal effective concentration (EC50) came out at 50.7 nM and the Emax amounted to 108%.

Consider `CN(C)C1CN(C(=O)c2ccc(Oc3cc(C(=O)Nc4ccn(C)n4)cc4c3CC(C)(C)O4)cc2F)C1` [Example 57, 4-[4-(3-Dimethylamino-azetidine-1-carbonyl)-3-fluoro-phenoxy]-2,2-dimethyl-2,3-dihydro-benzofuran-6-carboxylic acid(1-methyl-1H-pyrazol-3-yl)-amide], for which the activation at 10 µM stood at 131%, the EC50 is 643 nM and the Emax worked out at 148%.

For orientation: EC50 means the concentration needed to bring the measured effect to its halfway point.
